assay: Agonist activity at human IP receptor in human platelets assessed as inhibition of ADP-induced platelet aggregation

Row | SMILES | IC50 [nM]
1 | O=C(O)COc1cccc2c1CCC(Cn1ncc(-c3ccccc3F)c(-c3ccccc3)c1=O)C2 (centres undefined) | 220
2 | O=C(O)COc1cccc2c1CCC(Cn1ncc(-c3ccccc3)c(-c3ccccc3)c1=O)C2 (centres undefined) | 325
3 | COc1cccc(-c2cnn(CC3CCc4c(cccc4OCC(=O)O)C3)c(=O)c2-c2ccccc2)c1F (centres undefined) | 64
4 | O=C(O)COc1cccc2c1CCC(Cn1ncc(-c3cccc(F)c3)c(-c3ccccc3)c1=O)C2 (centres undefined) | 191
5 | COc1ccc(-c2c(-c3ccccc3)cnn(CC3CCc4c(cccc4OCC(=O)O)C3)c2=O)cc1 (centres undefined) | 330
6 | O=C(O)COc1cccc2c1CCC(Cn1ncc(-c3cccc(F)c3F)c(-c3ccccc3)c1=O)C2 (centres undefined) | 87
7 | O=C(O)COc1cccc2c1CCC(Cn1ncc(-c3ccccc3)c(-c3ccc(F)cc3)c1=O)C2 (centres undefined) | 230
8 | O=C(O)COc1cccc2c1CCC(Cn1ncc(-c3cccc(F)c3F)c(-c3ccc(F)cc3)c1=O)C2 (centres undefined) | 62
9 | O=C(O)COc1cccc2c1CC[C@@H](Cn1ncc(-c3cccc(F)c3F)c(-c3ccc(F)cc3)c1=O)C2 | 62

Reference: BindingDB's records for doi:10.1016/j.bmcl.2015.01.024 (Arena Pharmaceuticals, 2015)
